ChEMBL document CHEMBL3243968, “Effects of molecular modification on hypocholesteremic activity of 1,3-bis(substituted phenoxy)-2-propanones and related derivatives” (J Med Chem, 1978)

Columns and labels:
[1] = tested on: Rattus norvegicus; assay: Toxicity in Sprague-Dawley rat at 10 mg/kg/day, po; format: organism-based; design: route oral; conditions: in vivo
[2] = tested on: Rattus norvegicus; assay: Estrogenic activity in Sprague-Dawley rat at 10 mg/kg/day, po; format: ADME, organism-based; design: route oral; conditions: in vivo
[3] = 1-Octanol-water partition coefficient, log P of the compound by UV spectrophotometer; format: physicochemical
[4] = tested on: Rattus norvegicus; assay: Toxicity in Sprague-Dawley rat at 10 mg/kg/day, po administered for 16 days; format: organism-based; design: route oral; conditions: in vivo, 384 h
[5] = tested on: Rattus norvegicus; assay: Toxicity in Sprague-Dawley rat at 10 mg/kg/day, po administered for 4 days; format: organism-based; design: route oral; conditions: in vivo, 96 h
[6] = tested on: Rattus norvegicus; assay: Toxicity in Sprague-Dawley rat at 10 mg/kg/day, po administered for 10 days; format: organism-based; design: route oral; conditions: in vivo, 240 h

Row | Compound | Activity [1] | Activity [2] | other results
1 | CCCCCCCCCCCCCCC(=O)COc1ccc(C)cc1 | Non-toxic | Non-toxic | 
2 | CCCCCCCCCCCCC(OC(C)=O)S(C)(=O)=O (stereo unspecified) | Non-toxic | Non-toxic | 
3 | O=C(COc1ccc([N+](=O)[O-])cc1)COc1ccc([N+](=O)[O-])cc1 | Non-toxic | Non-toxic | 
4 | CCOC(COc1cc(C)c(C)cc1Cl)(COc1cc(C)c(C)cc1Cl)OCC | Non-toxic | Non-toxic | logP [3]: 2.69
5 | O=C(CCl)COc1ccc([N+](=O)[O-])cc1 |  | Non-toxic | Activity [4]: Toxic; Activity [5]: Toxic; Activity [6]: Toxic
6 | O=C(COc1ccc(Cl)c2ccccc12)COc1ccc(Cl)c2ccccc12 | Non-toxic | Non-toxic | 
7 | O=C(COc1ccccc1)COc1ccccc1 |  |  | logP [3]: < 2.69
8 | CCCCCCCCCCCCCCCCCCOCC(=O)COc1ccc(C)cc1 | Non-toxic | Non-toxic | 
9 | CCOC(=O)CC(=O)COc1ccc(C)cc1 | Non-toxic | Non-toxic | 
10 | O=C(CCl)COc1cccc2ccccc12 | Non-toxic | Non-toxic | 
11 | Cc1ccccc1OCC(=O)COC(=O)c1ccc(Cl)cc1 | Non-toxic | Non-toxic | 
12 | CC(=O)COc1ccc([N+](=O)[O-])cc1 | Non-toxic | Non-toxic | 
13 | CC(=O)COc1ccc(C)cc1 | Non-toxic | Non-toxic | 
14 | O=C(COc1ccc2c(c1)CCC2)COc1ccc2c(c1)CCC2 | Non-toxic | Non-toxic | 
15 | CCOC(=O)C(C)(C)Oc1ccc(Cl)cc1 [CLOFIBRATE] | Non-toxic | Non-toxic | 
16 | O=C(COc1ccc(-c2ccccc2)cc1)COc1ccc(-c2ccccc2)cc1 | Non-toxic | Non-toxic | 
17 | Cc1ccc(OCC(=O)CO)cc1 | Non-toxic | Non-toxic | 
18 | Cc1ccc(OCC2CO2)cc1 (stereo unspecified) | Non-toxic | Non-toxic | logP [3]: 2.69
19 | CCCCCOCC(=O)COCCCCC | Non-toxic | Non-toxic | 
20 | COc1cccc(OCC(=O)COc2cccc(OC)c2)c1 | Non-toxic | Non-toxic | 
21 | COc1ccccc1OCC(=O)COc1ccccc1OC |  |  | logP [3]: < 2.69
22 | Cc1ccc(OC(C)C(=O)C(C)Oc2ccc(C)cc2)cc1 (stereo unspecified) | Non-toxic | Non-toxic | 
